Source: patent US8134015B2, “Compound inhibiting in vivo phosphorous transport and medicine containing the same” (Kyowa Hakko Kirin Co., Ltd., priority 2003, dated 2012)

Biological target: T1, rat NaPi-2b (Rattus norvegicus, UniProt Q9JJ09)
T1 construct: expressed in transfected cells; host or cells: Xenopus oocytes injected with cRNA
T1 sequence (Q9JJ09 1-695): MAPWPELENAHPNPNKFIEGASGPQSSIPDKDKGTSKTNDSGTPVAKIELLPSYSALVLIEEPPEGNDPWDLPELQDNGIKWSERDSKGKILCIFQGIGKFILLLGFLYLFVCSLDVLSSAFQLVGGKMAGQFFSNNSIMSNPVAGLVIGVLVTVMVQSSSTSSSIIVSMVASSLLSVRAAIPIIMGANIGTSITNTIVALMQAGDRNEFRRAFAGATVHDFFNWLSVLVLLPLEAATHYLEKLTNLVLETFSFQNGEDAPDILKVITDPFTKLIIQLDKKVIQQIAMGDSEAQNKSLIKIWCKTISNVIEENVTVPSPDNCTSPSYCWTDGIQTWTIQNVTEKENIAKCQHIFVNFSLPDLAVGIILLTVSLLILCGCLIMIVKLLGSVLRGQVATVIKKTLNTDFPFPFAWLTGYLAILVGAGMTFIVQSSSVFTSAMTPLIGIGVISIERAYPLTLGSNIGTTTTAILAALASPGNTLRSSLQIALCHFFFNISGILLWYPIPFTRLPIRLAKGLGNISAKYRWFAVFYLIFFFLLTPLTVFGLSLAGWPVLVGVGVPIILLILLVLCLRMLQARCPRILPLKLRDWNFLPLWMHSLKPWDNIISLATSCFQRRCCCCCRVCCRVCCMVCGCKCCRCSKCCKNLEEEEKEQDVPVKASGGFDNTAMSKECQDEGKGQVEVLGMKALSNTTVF
Assay: Sodium-dependent phosphate uptake of Xenopus oocytes which expressed NaPi-2b (32P)
Type: cell-based
Conditions: for IC50: Xenopus oocytes expressing rat NaPi-2b, 32P radioactive phosphorus, read-out: IC50 (phosphate uptake inhibitory activity); for inhibition at 300 µM: phosphate uptake, oocytes expressing rat NaPi-2b, determined from inhibition curve
How it was run: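 Rat NaPi-2b cloned from small-intestine cDNA; cRNA injected into Xenopus oocytes, expression for 2 days. Phosphate uptake inhibition measured with 32P; percent inhibition at 300 μM and 100 μM read from the same inhibition curve.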

Row | SMILES | IC50 | inhibition at 300 µM
1 | Cc1ccc(/C=N/NC(=O)c2cc(Br)ccc2NC(=O)c2ccc(CN3CCC(O)CC3)cc2)cc1C [Compound 324, N-[4-Bromo-2-(3,4-dimethyl-benzylidene-hydrazinocarbonyl)-phenyl]-4-(4-hydroxy-piperidin-1-ylmethyl)-benzamide] | 4.43 µM | –
2 | COc1ccc(/C=N/NC(=O)c2cccnc2NC(=O)c2cccc(CN(CC(C)O)CC(C)O)c2)cc1 (stereo not shown) [Compound 968, 3-{[Bis-(2-hydroxy-propyl)-amino]-methyl}-N-[3-(4-methoxy-benzylidene-hydrazinocarbonyl)-pyridin-2-yl]-benzamide] | – | 52.7%
3 | CCN(CC)CCN(C)Cc1cccc(C(=O)Nc2ccc(OCCCCF)cc2C(=O)N/N=C/c2ccc(C)cc2)c1 [Compound 1058, 3-{[(2-Diethylamino-ethyl)-methyl-amino]-methyl}-N-[4-(4-fluoro-butoxy)-2-(4-methyl-benzylidene-hydrazinocarbonyl)-phenyl]-benzamide] | 1.07 µM | –
4 | COc1ccc(/C=N/NC(=O)c2ccccc2NC(=O)c2ccc(F)cc2)cc1Br [Compound 102, N-[2-(3-Bromo-4-methoxy-benzylidene-hydrazinocarbonyl)-phenyl]-4-fluoro-benzamide] | 5.58 µM | –
5 | COc1ccc(C(=O)Nc2ccc(Br)cc2C(=O)NNCc2ccc(C)c(C)c2)cc1OC [Compound 548, N-{4-Bromo-2-[N′-(3,4-dimethyl-benzyl)-hydrazinocarbonyl]-phenyl}-3,4-dimethoxy-benzamide] | – | 85.7%
6 | Cc1ccc(/C=N/NC(=O)c2cc(Cl)ccc2NC(=O)c2cccc(CN(C)CCO)c2)cc1 [Compound 397, N-[4-Chloro-2-(4-methyl-benzylidene-hydrazinocarbonyl)-phenyl]-3-{[(2-hydroxy-ethyl)-methyl-amino]-methyl}-benzamide] | 9.25 µM | –
7 | COc1ccc(C(=O)Nc2ccccc2C(=O)N/N=C/c2ccc(-c3ccccc3)cc2)cc1OC [Compound 233, N-[2-(Biphenyl-4-ylmethylene-hydrazinocarbonyl)-phenyl]-3,4-dimethoxy-benzamide] | – | 33.6%
8 | CCOCCN(CCOCC)Cc1ccc(C(=O)Nc2ccc(Br)cc2C(=O)N/N=C/c2ccc(C)cc2)cc1 [Compound 734, 4-{[Bis-(2-ethoxy-ethyl)-amino]-methyl}-N-[4-bromo-2-(4-methyl-benzylidene-hydrazinocarbonyl)-phenyl]-benzamide] | – | 64.9%
9 | Cc1ccccc1/C=N/NC(=O)c1ccccc1NC(=O)c1ccccc1 [Compound 229, N-[2-(2-Methyl-benzylidene-hydrazinocarbonyl)-phenyl]-benzamide] | 6.32 µM | –
10 | Cc1csc(C(=O)N/N=C/c2cccc(F)c2)c1NC(=O)c1cccc(CSCCCO)c1 [Compound 527, N-[2-(3-Fluoro-benzylidene-hydrazinocarbonyl)-4-methyl-thiophen-3-yl]-3-(3-hydroxy-propylsulfanylmethyl)-benzamide] | – | 40.9%
11 | CC(O)CN(Cc1cccc(C(=O)Nc2ccc(OCC(O)CN3CCCCC3)cc2C(=O)N/N=C/c2ccc(Cl)c(C(F)(F)F)c2)c1)CC(C)O (stereo not shown) [Compound 950, 3-{[Bis-(2-hydroxy-propyl)-amino]-methyl}-N-[2-(4-chloro-3-trifluoromethyl-benzylidene-hydrazinocarbonyl)-4-(2-hydroxy-3-piperidin-1-yl-propoxy)-phenyl]-benzamide] | 9.08 µM | –
12 | O=C(Nc1ccccc1C(=O)N/N=C/c1cccc(O)c1)c1ccc(F)cc1 [Compound 80, 4-Fluoro-N-[2-(3-hydroxy-benzylidene-hydrazinocarbonyl)-phenyl]-benzamide] | 10.9 µM | –
13 | COc1ccc(C(=O)Nc2ccc(I)cc2C(=O)N/N=C/c2ccc(F)cc2)cc1OC [Compound 205, N-[2-(4-Fluoro-benzylidene-hydrazinocarbonyl)-4-iodo-phenyl]-3,4-dimethoxy-benzamide] | < 3 µM | –
14 | Cc1ccc(/C=N/NC(=O)c2cc(Cl)ccc2NC(=O)c2cccc(CS(=O)(=O)Cc3ccco3)c2)cc1C [Compound 686, N-[4-Chloro-2-(3,4-dimethyl-benzylidene-hydrazinocarbonyl)-phenyl]-3-(furan-2-ylmethanesulfonylmethyl)-benzamide] | < 3 µM | –
15 | COc1ccc(/C=N/NC(=O)c2c(C)csc2NC(=O)c2cccc(CN3CCC4(CC3)OCCO4)c2)cc1 [Compound 837, 3-(1,4-Dioxa-8-aza-spiro[4,5]dec-8-ylmethyl]-N-[3-(4-methoxy-benzylidene-hydrazinocarbonyl)-4-methyl-thiophen-2-yl]-benzamide] | 12.9 µM | –
16 | CCN(CC)CCN(C)Cc1cccc(C(=O)Nc2ccc(Cl)cc2C(=O)N/N=C/c2ccc(OCCCN(C)C)cc2)c1 [Compound 999, N-{4-Chloro-2-[4-(3-dimethylamino-propoxy)-benzylidene-hydrazinocarbonyl]-phenyl}-3-{[(2-diethylamino-ethyl)-methyl-amino]-methyl}-benzamide] | 58.2 µM | –
17 | O=C(Nc1ccc(Cl)cc1C(=O)N/N=C/C=C/c1ccccc1)c1cccnc1 [Compound 348, N-[4-Chloro-2-(3-phenyl-allylidene-hydrazinocarbonyl)-phenyl]-nicotinamide] | 16.6 µM | –
18 | Cc1ccc(/C=N/NC(=O)c2c(C)csc2NC(=O)c2cccc(CN3CCC(CO)CC3)c2)cc1 [Compound 600, 3-(4-Hydroxymethyl-piperidin-1-ylmethyl)-N-[4-methyl-3-(4-methyl-benzylidene-hydrazinocarbonyl)-thiophen-2-yl]-benzamide] | 3.84 µM | –
19 | CCN(CC)CCN(C)Cc1cccc(C(=O)Nc2sccc2C(=O)N/N=C/c2ccc(OC)cc2)c1 [Compound 669, 3-{[(2-Diethylamino-ethyl)-methyl-amino]-methyl}-N-[3-(4-methoxy-benzylidene-hydrazinocarbonyl)-thiophen-2-yl]-benzamide] | 15.3 µM | –

Further lines, results first:

Row | IC50 | inhibition at 300 µM | SMILES
20 | 1.41 µM | – | CCN(CC)CCN(C)Cc1cccc(C(=O)Nc2sc3c(c2C(=O)N/N=C/c2ccc(Cl)c(C(F)(F)F)c2)CCCC3)c1 [Compound 613, N-[3-(4-Chloro-3-trifluoromethyl-benzylidene-hydrazinocarbonyl)-4,5,6,7-tetrahydro-benzo[b]thiophen-2-yl]-3-{[(2-diethylamino-ethyl)-methyl-amino]-methyl}-benzamide]
21 | 0.98 µM | – | Cc1ccc(/C=N/NC(=O)c2cc(Br)ccc2NC(=O)c2ccccn2)cc1C [Compound 499, Pyridin-2-carboxylic acid [4-bromo-2-(3,4-dimethyl-benzylidene-hydrazinocarbonyl)-phenyl]-amide]
22 | 1.5 µM | – | CCN(CC)CCN(C)Cc1cccc(C(=O)Nc2ccc(OCCOCCOC)cc2C(=O)N/N=C/c2ccc(Cl)c(C(F)(F)F)c2)c1 [Compound 1036, N-{2-(4-Chloro-3-trifluoromethyl-benzylidene-hydrazinocarbonyl)-4-[2-(2-methoxy-ethoxy)-ethoxy]-phenyl}-3-{[(2-diethylamino-ethyl)-methyl-amino]-methyl}-benzamide]
23 | 0.95 µM | – | Cc1ccc(/C=N/NC(=O)c2c(NC(=O)c3cccc(CSCCCO)c3)sc3c2CCCC3)cc1C [Compound 605, N-[3-(3,4-Dimethyl-benzylidene-hydrazinocarbonyl)-4,5,6,7-tetrahydro-benzo[b]thiophen-2-yl]-3-(3-hydroxy-propylsulfanyl-methyl)-benzamide]
24 | 0.53 µM | – | Cc1ccc(/C=N/NC(=O)c2cc(N3CCCCC3)ccc2NC(=O)c2cccc(CN3CCC(O)CC3)c2)cc1C [Compound 870, N-[2-(3,4-Dimethyl-benzylidene-hydrazinocarbonyl)-4-piperidin-1-yl-phenyl]-3-(4-hydroxy-piperidin-1-ylmethyl)-benzamide]
25 | 0.93 µM | – | Cc1ccc(/C=N/NC(=O)c2cc(Br)ccc2NC(=O)c2cccs2)cc1 [Compound 160, Thiophene-2-carboxylic acid [4-bromo-2-(4-methyl-benzylidene-hydrazinocarbonyl)-phenyl]-amide]
26 | < 3 µM | – | Cc1ccc(/C=N/NC(=O)c2c(NC(=O)c3cccc(CN4CCN(CCO)CC4)c3)sc3c2CCCC3)cc1 [Compound 622, 3-[4-(2-Hydroxy-ethyl)-piperazin-1-ylmethyl]-N-[3-(4-methyl-benzylidene-hydrazinocarbonyl)-4,5,6,7-tetrahydro-benzo-[b]thiophen-2-yl]-benzamide]
27 | 0.61 µM | – | O=C(Nc1ccc(Br)cc1C(=O)N/N=C/c1ccc(F)cc1)c1cccc(CSc2ccncc2)c1 [Compound 196, N-[4-Bromo-2-(4-fluoro-benzylidene-hydrazinocarbonyl)-phenyl]-3-(pyridin-4-ylsulfanylmethyl)-benzamide]
28 | 0.47 µM | – | Cc1ccc(/C=N/NC(=O)c2c(C)csc2NC(=O)c2cccc(CSc3nc[nH]n3)c2)cc1C [Compound 551, N-[3-(3,4-Dimethyl-benzylidene-hydrazinocarbonyl)-4-methyl-thiophen-2-yl]-3-(1H-[1,2,4]triazol-3-ylsulfanylmethyl)-benzamide]
